Source: article PMC11267565, “Glutathione-Based Photoaffinity Probe Identifies Caffeine as a Positive Allosteric Modulator of the Calcium-Sensing Receptor” (ACS Chemical Biology, 2024)

Experiments:
[1] = biological target: T1, calcium-sensing receptor (CaSR) (Homo sapiens, UniProt P41180); experiment: concentration-dependent competition with DAZ-G photo-conjugation in cells; type: cell-based; parameters: FLAG-CaSR
T1 sequence (P41180 20-1078): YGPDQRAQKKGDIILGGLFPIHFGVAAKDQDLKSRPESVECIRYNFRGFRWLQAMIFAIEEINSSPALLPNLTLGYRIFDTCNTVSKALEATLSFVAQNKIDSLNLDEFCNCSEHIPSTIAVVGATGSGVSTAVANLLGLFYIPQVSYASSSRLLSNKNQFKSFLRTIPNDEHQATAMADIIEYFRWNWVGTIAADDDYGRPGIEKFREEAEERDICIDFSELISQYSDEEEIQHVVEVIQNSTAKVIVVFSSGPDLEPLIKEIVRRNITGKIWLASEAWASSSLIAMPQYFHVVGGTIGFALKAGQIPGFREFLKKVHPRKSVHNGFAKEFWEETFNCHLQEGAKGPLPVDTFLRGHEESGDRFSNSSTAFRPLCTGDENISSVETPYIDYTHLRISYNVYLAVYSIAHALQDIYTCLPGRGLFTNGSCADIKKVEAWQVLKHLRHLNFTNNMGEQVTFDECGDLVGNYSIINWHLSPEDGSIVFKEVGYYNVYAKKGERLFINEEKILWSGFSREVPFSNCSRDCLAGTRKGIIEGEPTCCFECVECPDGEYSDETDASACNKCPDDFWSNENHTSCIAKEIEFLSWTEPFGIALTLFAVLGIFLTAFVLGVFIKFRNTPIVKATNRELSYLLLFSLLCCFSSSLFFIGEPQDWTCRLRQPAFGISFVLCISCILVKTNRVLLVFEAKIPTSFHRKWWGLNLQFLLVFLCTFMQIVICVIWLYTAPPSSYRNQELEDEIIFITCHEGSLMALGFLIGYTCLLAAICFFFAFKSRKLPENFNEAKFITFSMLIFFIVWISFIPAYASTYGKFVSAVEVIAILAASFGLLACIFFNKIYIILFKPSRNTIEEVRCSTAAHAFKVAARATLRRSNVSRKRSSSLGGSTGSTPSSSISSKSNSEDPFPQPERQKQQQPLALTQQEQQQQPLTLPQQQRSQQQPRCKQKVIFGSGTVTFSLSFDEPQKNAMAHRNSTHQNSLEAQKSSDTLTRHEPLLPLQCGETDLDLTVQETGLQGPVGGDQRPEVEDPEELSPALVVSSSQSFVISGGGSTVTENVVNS

[2] = biological target: T1, calcium-sensing receptor (CaSR); experiment: Cal-520 Ca2+ flux in HEK293-CaSR cells (EC50); competition with DAZ-G photo-conjugation; E837A and S170A mutants; type: cell-based

Structure (SMILES)	concentration-dependent competition with DAZ-G photo-conjugation in cells [1]	EC50 [2] [µM]
N[C@@H](Cc1ccccc1)C(=O)O [L-Phe]	L-Phe, a prototype ligand for ABS, induced concentration-dependent competition to DAZ-G	
Cn1c(=O)c2c(ncn2C)n(C)c1=O [caffeine]		3.35
